For assay [1], the target named is T1, human EP1 receptor (Homo sapiens, UniProt P34995).
T1 sequence (P34995 1-402): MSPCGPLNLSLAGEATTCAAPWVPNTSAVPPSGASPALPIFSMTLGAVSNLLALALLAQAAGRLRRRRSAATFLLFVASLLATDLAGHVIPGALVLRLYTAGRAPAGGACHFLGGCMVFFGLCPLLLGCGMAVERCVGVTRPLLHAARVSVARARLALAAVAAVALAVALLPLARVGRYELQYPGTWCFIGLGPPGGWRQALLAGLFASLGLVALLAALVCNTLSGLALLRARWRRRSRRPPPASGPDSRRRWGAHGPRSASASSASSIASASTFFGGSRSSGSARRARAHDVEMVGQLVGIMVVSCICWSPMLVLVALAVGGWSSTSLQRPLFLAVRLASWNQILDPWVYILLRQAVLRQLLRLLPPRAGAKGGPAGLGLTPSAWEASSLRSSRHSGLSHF
Put plainly: Test 1: Human EP1 receptor radioligand binding assay ([3H]-PGE2, transfected HEK-293 cell membranes). The settings on record: read-out: Results of Test 1 (Binding assay), % inh. On the set-up: expressed in transfected cells; host or cells: HEK-293 cell membranes. Here is the method: Test 1: Human EP1 Receptor Radioligand Binding Assay
To investigate binding properties of EP1 receptor ligands to human EP1 receptor, transfected HEK-293 cell membranes and [3H]-PGE2 (Perkin Elmer) were used. In 96-well plates the assay was carried out with a total reaction volume of 250 μl, containing 25 μl of membrane suspension (30 μg protein/well), 25 μl of [3H]-PGE2 (10 nM) in either absence or presence of 25 μl of either buffer or PGE2 (10 μM) for total and non-specific binding, respectively. Binding buffer contained 10 mM MES, 1 mM MgCl2 and 1 mM EDTA at pH 6.0. Plates were incubated at 25° C. for 60 minutes. After the incubation period, 200 μl of incubate were transferred to MultiScreen HTS, FB plates (Millipore), filtered and plates were washed 6 times with ice-cold 10 mM MES, 1 mM MgCl2 and 1 mM EDTA at pH 6.0. Filters were dried and counted in a MicroBeta scintillation counter (Perkin-Elmer) using EcoScint liquid scintillation cocktail.
Percentage inhibition was calculated relating compounds activity to the 0% inhibition of the wells incubated with 10 nM [3H]-PGE2 alone (total binding) and 100% inhibition of the wells incubated with 10 nM [3H]-PGE2 plus 10 μM PGE2 (non-specific binding).

For assay [2], the target named is T1, human EP1 receptor. In words: Test 2: Measurement of IP1 responses by HTRF, suspended HEK-293 cells stably expressing human EP1 receptors, PGE2 30 nM. The assay is classed as cell-based. Details: expressed in transfected cells. The settings on record: HEK293, at 10 μM, read-out: Results of Test 2 (Functional assay), % inh. An outline of the steps:
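Suspended cells preincubated with compound for 15 min at 37 °C, then stimulated with 30 nM PGE2 for 90 min at 37 °C. IP1 quantified by competitive HTRF (665/620 nm) after lysis. Percent inhibition scaled between PGE2 alone (0%) and PGE2 plus 1 μM reference antagonist (100%).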

The target of assay [3] is T1, human EP1 receptor. Put plainly: Test 3: Measurement of IP1 responses by HTRF, HEK-293 cells stably expressing human EP1 receptors incubated o/n, PGE2 10 nM. Type of assay: cell-based. Particulars: HEK293, read-out: Results of Test 3 (Functional assay), % inh. On the set-up: expressed in transfected cells. On the procedure:
Test 3: Measurement of IP1 Responses by Homogeneous Time Resolved Fluorescence
IP1 measurements on HEK-293 cells that stably expressed human EP1 receptors were performed by using a system based on Homogeneous Time Resolved Fluorescense (HTRF) (Gabriel et al., 2003). This technology allows the direct measurement of IP1 in living cells. The principle of this assay is based on competition between IP1 produced by cells and IP1-d2 conjugate for the binding with monoclonal anti-IP1-cryptate conjugate. The HTRF IP1 kit from CisBio was used according to the manufacturer's directions. The experimental procedure was performed as stated below.
40,000 cells per well were added to 96-well culture plates in 40 μl of Optimem and incubated o/n at 37° C. Optimem was replaced by 40 μl of stimulation buffer (supplied by the kit) and compounds were then added in 20 μl of stimulation buffer and incubated at 37° C. for 15 minutes followed by 10 μl of PGE2 to a final concentration of 10 nM. After 90 minutes at 37° C., the reaction was stopped lysing the cells with a mixture of 15 μl of cryptate and 15 μl of IP1-d2 prepared in the lysis buffer supplied by the manufacturer. Plates were incubated for an additional hour at room temperature and read at 665 nm/620 nm using an UltraEvolution Plate reader (Tecan).
Antagonist percentage inhibition was calculated relating compounds activity to the 0% inhibition of the wells incubated with 10 nM PGE2 alone and 100% inhibition of the wells incubated with 10 nM PGE2 plus 10 μM of the reference antagonist.

With `O=C(O)c1cccc2c1ccn2Cc1cc(Cl)ccc1OCc1ccc(C(F)(F)F)cc1F` [Example 47, 1-(5-chloro-2-((2-fluoro-4-(trifluoromethyl)benzyl)oxy)benzyl)-1H-indole-4-carboxylic acid], the inhibition at 10 µM in assay [1] and in assay [2] was > 75% throughout.
With `O=C(O)c1cccc2c1ccn2Cc1cc(Cl)ccc1OCc1ccc(Cl)cc1F` [Example 48, 1-(5-chloro-2-((4-chloro-2-fluorobenzyl)oxy)benzyl)-1H-indole-4-carboxylic acid], the inhibition at 10 µM in assay [1] and in assay [2] was > 75% each time.
`O=C(O)c1cccc2c1ccn2Cc1cc(C(F)(F)F)ccc1OCc1cccc(F)c1` [Example 49, 1-(2-((3-fluorobenzyl)oxy)-5-(trifluoromethyl)benzyl)-1H-indole-4-carboxylic acid]: the figures for the inhibition at 10 µM in assay [1] and in assay [2] were 45 to 75% and > 75%, respectively.
The like results for `O=C(O)c1cccc2c1ccn2Cc1cc(C(F)(F)F)ccc1OCc1ccc(F)cc1F` [Example 51, 1-(2-((2,4-difluorobenzyl)oxy)-5-(trifluoromethyl)benzyl)-1H-indole-4-carboxylic acid] were, in that order, 45 to 75% and > 75%.
The like results for `O=C(O)c1cccc2c1ccn2Cc1ccccc1OCc1ccc(F)cc1F` [Example 54, 1-(2-((2,4-difluorobenzyl)oxy)benzyl)-1H-indole-4-carboxylic acid] were, in that order, 45 to 75% and > 75%.
The like results for `O=C(O)c1cccc2c1ccn2Cc1cc(Br)ccc1OCc1ccc(Br)cc1F` [Example 55, 1-(5-bromo-2-((4-bromo-2-fluorobenzyl)oxy)benzyl)-1H-indole-4-carboxylic acid] were, in that order, > 75% and > 75%.
As to `O=C(O)c1ccc2c(ccn2Cc2cc(F)ccc2OCc2ccc(F)c(Br)c2)c1` [Example 68, 1-(2-((3-bromo-4-fluorobenzyl)oxy)-5-fluorobenzyl)-1H-indole-5-carboxylic acid], the inhibition at 10 µM was 45 to 75% in assay [1] and > 75% in assay [2].
The matching figures for `O=C(O)c1ccc2c(ccn2Cc2cc(Br)ccc2OCc2ccc(F)cc2C(F)(F)F)c1` [Example 69]: 45 to 75% and > 75%.
For the compound `O=C(O)c1ccc2c(ccn2Cc2cc(C(F)(F)F)ccc2OCc2ccc(Br)cc2F)c1` [Example 75, 1-(2-((4-bromo-2-fluorobenzyl)oxy)-5-(trifluoromethyl)benzyl)-1H-indole-5-carboxylic acid], the inhibition at 10 µM is 45 to 75% in assay [1] and > 75% in assay [2].
The like results for `O=C(O)c1ncnc2c1ccn2Cc1cc(Cl)ccc1OCc1ccc(F)cc1F` [Example 99] were, in that order, > 75% and > 75%.
As to `O=C(O)c1cccc2c1OCC(=O)N2Cc1cc(Br)ccc1OCc1ccc(Cl)cc1F` [Example 115], the inhibition at 10 µM in assay [1] and in assay [3] was > 75% in each case.
With `O=C(O)c1cccc2c1OCCN2Cc1cc(Cl)ccc1OCc1ccc(Cl)cc1F` [Example 117], the inhibition at 10 µM in assay [1] and in assay [3] was > 75% each time.
As for `O=C(O)c1cccc2c1OCCN2Cc1ccccc1OCc1ccc(Cl)cc1F` [Example 119], the inhibition at 10 µM in assay [1] and in assay [3] was > 75% each time.
Regarding `O=C(O)c1cccc2c1OCCN2Cc1cc(F)ccc1OCc1ccc(F)cc1Cl` [Example 121], the inhibition at 10 µM in assay [1] and in assay [3] was > 75% throughout.
For the compound `O=C(O)c1cccc2c1OCCN2Cc1ccccc1OCc1ccc(F)cc1F` [Example 122], the inhibition at 10 µM in assay [1] and in assay [3] was > 75% each time.
`O=C(O)c1cccc2c1cnn2Cc1cc(Cl)ccc1OCc1ccc(Cl)cc1F` [Example 124]: the inhibition at 10 µM in assay [1] and in assay [3] was > 75% throughout.
Take `CC(C)(F)COc1ccc(Cl)cc1Cn1ncc2c(C(=O)O)cccc21` [Example 125]: the inhibition at 10 µM in assay [1] and in assay [3] was > 75% in each case.
`O=C(O)c1cccc2c1cnn2Cc1cc(Br)ccc1OCc1ccc(Cl)cc1F` [Example 136]: the inhibition at 10 µM in assay [1] and in assay [3] was > 75% in each case.
With `O=C(O)c1cccc2c1cnn2Cc1cc(Cl)ccc1OC1CCC1` [Example 137], the inhibition at 10 µM in assay [1] and in assay [3] was > 75% throughout.
With `CC(C)(C)COc1ccc(Cl)cc1Cn1ncc2c(C(=O)O)cccc21` [Example 138], the inhibition at 10 µM in assay [1] and in assay [3] was > 75% each time.
As for `O=C(O)c1cccc2c1c(CO)cn2Cc1cc(Cl)ccc1OCc1ccc(Cl)cc1F` [Example 141, sodium 1-(5-chloro-2-((4-chloro-2-fluorobenzyl)oxy)benzyl)-3-(hydroxymethyl)-1H-indole-4-carboxylate], the inhibition at 10 µM in assay [1] and in assay [3] was > 75% each time.
In the case of `O=C(O)c1cccc2c1c(CO)cn2Cc1cc(Cl)ccc1OCc1ccc(F)cc1F` [Example 142], the inhibition at 10 µM in assay [1] and in assay [3] was > 75% each time.
As for `O=C(O)c1cccc2c1c(CO)cn2Cc1ccccc1OCc1ccc(Cl)cc1F` [Example 144], the inhibition at 10 µM in assay [1] and in assay [3] was > 75% throughout.
For the compound `O=C(O)c1cccc2c1c(CO)cn2Cc1cc(F)ccc1OCc1ccc(F)cc1F` [Example 145], the inhibition at 10 µM in assay [1] and in assay [3] was > 75% in each case.
On to `O=C(O)c1cccc2c1c(CO)cn2Cc1cc(F)ccc1OCc1ccc(Cl)cc1F` [Example 146], for which the inhibition at 10 µM in assay [1] and in assay [3] was > 75% each time.
In the case of `CC(C)(F)COc1ccc(Cl)cc1Cn1cc(CO)c2c(C(=O)O)cccc21` [Example 147], the inhibition at 10 µM in assay [1] and in assay [3] was > 75% in each case.
Take `O=C(O)c1cccc2c1c(CO)cn2Cc1cc(F)ccc1OC1CCC1` [Example 148]: the inhibition at 10 µM in assay [1] and in assay [3] was > 75% in each case.
Regarding `O=C(O)c1cccc2c1c(CO)cn2Cc1cc(F)ccc1OCc1ccc(F)cc1` [Example 149], the inhibition at 10 µM in assay [1] and in assay [3] was > 75% each time.
As for `CC(CF)COc1ccc(Cl)cc1Cn1cc(CO)c2c(C(=O)O)cccc21` (stereo not drawn) [Example 151], the inhibition at 10 µM in assay [1] and in assay [3] was > 75% throughout.
With `O=C(O)c1ccnc2c1c(CO)cn2Cc1cc(Cl)ccc1OCc1ccc(F)cc1F` [Example 152], the inhibition at 10 µM in assay [1] and in assay [3] was > 75% throughout.
`CC(C)COc1ccc(Cl)cc1Cn1cc(CCO)c2c(C(=O)O)cccc21` [Example 157]: the inhibition at 10 µM in assay [1] and in assay [3] was > 75% in each case.
For `CC(C)(F)COc1ccc(Cl)cc1CN1CCc2c(C(=O)O)cccc21` [Example 166], the inhibition at 10 µM in assay [1] and in assay [3] was > 75% each time.
As for `CC(C)COc1ccc(Cl)cc1CN1CCc2c(C(=O)O)cccc21` [Example 169], the inhibition at 10 µM in assay [1] and in assay [3] was > 75% throughout.

The values above are taken from patent publication US9518015B2, “EP1 receptor ligands” (LABORATORIOS DEL DR. ESTEVE, S.A., priority 2011, dated 2016).
